Data published in PMC4979527, “Post-translational allosteric activation of the P2X7 receptor through glycosaminoglycan chains of CD44 proteoglycans” (Cell Death Discovery, 2015).
Entries after “also recorded” stand apart in the source; their conditions may differ. One block for each molecule: values may come before it.

Assays:
[1] = target: T1, P2X7 receptor (Cricetulus griseus, UniProt A0A9J7FWH6); test: Cytoplasmic Ca2+ influx (Fluo-4, Flex Station 3) in wild-type CHO-K1 cells; format: cell-based, Chinese hamster; details: for Increase of Ca2+cyt response by heparin pre-treatment: heparin pre-incubation 5 min (10-100 μM)
T1 sequence (A0A9J7FWH6 1-593): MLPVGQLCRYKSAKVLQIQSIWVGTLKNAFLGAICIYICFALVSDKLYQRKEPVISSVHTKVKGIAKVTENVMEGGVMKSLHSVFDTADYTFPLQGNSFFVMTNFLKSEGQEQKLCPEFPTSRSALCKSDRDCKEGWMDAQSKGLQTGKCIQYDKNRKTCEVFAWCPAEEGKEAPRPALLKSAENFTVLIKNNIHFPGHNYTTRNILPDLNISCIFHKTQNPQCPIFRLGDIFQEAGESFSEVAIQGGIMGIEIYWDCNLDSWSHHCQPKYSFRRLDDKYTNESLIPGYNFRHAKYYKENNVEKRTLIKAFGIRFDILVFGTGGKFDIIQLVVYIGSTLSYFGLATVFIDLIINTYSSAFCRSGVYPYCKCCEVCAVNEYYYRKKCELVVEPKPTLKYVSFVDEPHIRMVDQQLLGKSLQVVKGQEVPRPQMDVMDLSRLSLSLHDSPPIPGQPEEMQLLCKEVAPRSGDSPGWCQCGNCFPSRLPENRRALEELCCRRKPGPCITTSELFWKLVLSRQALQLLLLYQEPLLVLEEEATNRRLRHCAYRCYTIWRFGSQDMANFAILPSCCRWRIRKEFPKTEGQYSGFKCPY
Description: (§1) Cytoplasmic Ca^2+ influx, [Ca^2+]cyt, measurements were monitored through changes of the Fluo-4 fluorescence intensity in real time using the Flex Station 3 microplate reader system. CHO-K1 (●-●) and CHO-745 ([…]-[…]) cells were seeded onto black 96-well plates (10^4 cells/well). Then, the cells were incubated with Fluo-4 for 1 h at 37 °C. […] The data represent the mean±S.E.M. (N=6).
(§2) Subsequently, the cells were incubated with Fluo-4 Direct Calcium Assay reagent for 1 h at 37 °C, according to the manufacturer’s instructions. The samples were stimulated with different agonists, and the fluorescence was quantified using a Flex Station 3 microplate reader (Molecular Devices, Sunnyvale, CA, USA). The Fluo-4 was excited at 490 nm and the emission was detected at 525 nm.[57]

[2] = target: T1, P2X7 receptor; test: Cytoplasmic Ca2+ influx (Fluo-4, Flex Station 3) in mutant CHO-745 cells defective in GAGs; format: cell-based, Chinese hamster; details: for Increase of Ca2+ response by heparin pre-treatment: heparin pre-incubation 5 min (10-100 μM)
Description: as §1, §2

[3] = test system: CHO-K1 and CHO-745 cells; test: Cell viability (MTT) and cell death (annexin V-APC/7-AAD) assay; format: cell-based; details: 24 h; for Morphology of CHO cultures (phase contrast microscopy): 4 mM ATP or 1 mM BzATP; for Cell death (MTT assay): high concentration (ATP >1 mM, BzATP >500 μM), both lines
Description: The viability of CHO cell lines was determined using the MTT assay.[58] […] The medium was removed, 100 μl of MTT (1 mg/ml) was added to each well and the cells were incubated again at 37 °C for 4 h. The supernatant was removed and 200 μl/well of DMSO was added to solubilize the formazan crystals formed. The absorbance was read at 570 nm using a microplate reader, and the cell viability was determined using the standard reduction of the MTT. The results were expressed relative to control cell viability (100%).
Cell death was investigated using annexin V-APC/7-AAD double staining and was analyzed through flow cytometry.[57],[59] […] The suspensions were transferred to tubes, centrifuged and resuspended with annexin V-APC and 7-AAD according to the manufacturer’s instructions. The cells were incubated at room temperature for 30 min, and the viable, apoptotic or necrotic cell populations were evaluated through flow cytometry. The data were collected using a FACSCalibur flow cytometer (Becton–Dickinson) and CellQuest software (Becton–Dickinson), followed by analysis using FlowJo software (Tree Star). […] The results were calculated as the percentage of cell death compared with the control.

[4] = test system: P2 receptors; test: Cytoplasmic Ca2+ influx (Fluo-4) in CHO cells, both lines; format: cell-based, Chinese hamster; details: for Intracellular Ca2+ increase on agonist addition: CHO cells, concentration-response curves; for Modulation of BzATP-stimulated Ca2+ influx by divalent cation: high concentration of cation (10 mM MgCl2; Cu2+ vs 100 μM BzATP), CHO-K1 and CHO-745
Description: as §1, §2

[5] = target: T1, P2X7 receptor; details: 4 mM ATP
Description: P2X7 pore formation was functionality examined in CHO cells by analyzing PI uptake using a FACSCalibur flow cytometer (Becton–Dickinson). The cells were seeded onto six-well plates (10^6 cells/well) and maintained for 48 h at 37 °C under an atmosphere of 5% (v/v) CO2. Subsequently, the cells were harvested using 10 mM EDTA/PBS and adjusted to a concentration of 10^6 cells per tube. The samples were incubated with 5 μM of PI at a final volume of 200 μl/well in fresh serum-free medium F12 for 15 min, followed by the addition of 4 mM ATP and incubation at 37 °C for 30, 60 and 120 min, respectively. The intensity of dye uptake was immediately determined. A total of 10 000 events were collected for each sample.[60],[61]

[6] = CHO-K1, in presence of 10 mM Mg2+ (MgCl2)
[7] = CHO-745, in presence of 10 mM Mg2+ (MgCl2)

Molecule: Nc1ncnc2c1ncn2[C@@H]1O[C@H](COP(=O)(O)OP(=O)(O)OP(=O)(O)O)[C@@H](OC(=O)c2ccc(C(=O)c3ccccc3)cc2)[C@H]1O (relative stereo) [BzATP+Mg^2+]
Emax [1, 6]: 153±6 URF
Hill coefficient [1, 6]: 1.5±0.1
Emax [2, 7]: 119±10 URF
Hill coefficient [2, 7]: 2.8±0.3

Molecule: Nc1ncnc2c1ncn2[C@@H]1O[C@H](COP(=O)(O)OP(=O)(O)OP(=O)(O)O)[C@@H](OC(=O)c2ccc(C(=O)c3ccccc3)cc2)[C@H]1O (relative stereo) [BzATP, 2′(3′)-O-(4-benzoylbenzoyl)adenosine 5′-triphosphate]
Emax ([1]; CHO-K1, Ca2+ influx): 275±8 URF
Hill coefficient ([1]; CHO-K1, Ca2+ influx): 1.0±0.1
Emax [1, 6]: 153±6 URF
Morphology of CHO cultures (phase contrast microscopy) [3]: increased morphological changes and cell detachment
Cell death (MTT assay) [3]: promoted cell death
Intracellular Ca2+ increase on agonist addition [4]: promoted Ca^2+ increase
Emax ([2]; CHO-745, Ca2+ influx): 136±6 URF
Hill coefficient ([2]; CHO-745, Ca2+ influx): 1.8±0.2
Emax [2, 7]: 119±10 URF
Hill coefficient [2, 7]: 2.8±0.3

Molecule: CSc1nc(N)c2ncn([C@@H]3O[C@H](COP(=O)(O)OP(=O)(O)OP(=O)(O)O)[C@@H](O)[C@H]3O)c2n1 [2-MeSATP, 2-(methylthio)adenosine 5′-triphosphate]
Intracellular Ca2+ increase on agonist addition [4]: did not increase intracellular Ca^2+

Molecule: Nc1ncnc2c1ncn2[C@@H]1O[C@H](COP(=O)(O)OP(=O)(O)O)[C@@H](O)[C@H]1O [ADP, adenosine 5′-diphosphate]
Intracellular Ca2+ increase on agonist addition [4]: promoted Ca^2+ increase

Molecule: Nc1ncnc2c1ncn2[C@@H]1O[C@H](COP(=O)(O)OP(=O)(O)OP(=O)(O)O)[C@@H](O)[C@H]1O [ATP, adenosine 5′-triphosphate]
Emax ([1]; CHO-K1, Ca2+ influx): 258±10 URF
Hill coefficient ([1]; CHO-K1, Ca2+ influx): 0.9±0.1
Morphology of CHO cultures (phase contrast microscopy) [3]: increased morphological changes and cell detachment
Cell death (MTT assay) [3]: promoted cell death
Intracellular Ca2+ increase on agonist addition [4]: promoted Ca^2+ increase
Sensitivity to PI accumulation, CHO-745 less sensitive than CHO-K1 [5]: 2.5 fold
Propidium iodide (PI) uptake ([5]; CHO cells, after 30 min at 37 °C): induced the time-dependent uptake of propidium iodide
Emax ([2]; CHO-745, Ca2+ influx): 97±7 URF
Hill coefficient ([2]; CHO-745, Ca2+ influx): 2.0±0.3

Molecule: [Cu+2] [Cu^2+]
Modulation of BzATP-stimulated Ca2+ influx by divalent cation [4]: negatively modulated

Molecule: [Mg+2] [Mg^2+]
Modulation of BzATP-stimulated Ca2+ influx by divalent cation [4]: negatively modulated

Molecule: O=c1ccn([C@@H]2O[C@H](COP(=O)(O)OP(=O)(O)O)[C@@H](O)[C@H]2O)c(=O)[nH]1 [UDP, uridine 5′-diphosphate]
Intracellular Ca2+ increase on agonist addition [4]: promoted Ca^2+ increase

Molecule: O=c1ccn([C@@H]2O[C@H](COP(=O)(O)OP(=O)(O)OP(=O)(O)O)[C@@H](O)[C@H]2O)c(=O)[nH]1 [UTP, uridine 5′-triphosphate]
Intracellular Ca2+ increase on agonist addition [4]: promoted Ca^2+ increase

Molecule: [Na+].[O-][Cl+2]([O-])[O-] [chlorate, sodium chlorate]
Inhibition of total P2X7 agonist (ATP or BzATP) response ([1]; CHO-K1, pre-treatment 20 or 50 mM sodium chlorate, 24 h): ~ 35%
Effect on P2X7 agonist response ([2]; CHO-745, pre-treatment 20 or 50 mM sodium chlorate): did not block the P2X7 agonist response

Molecule: Nc1ncnc2c1ncn2[C@@H](C=O)O[C@@H](C=O)COP(=O)(O)OP(=O)(O)OP(=O)(O)O [oxATP, adenosine 5′-triphosphate periodate oxidized]
Effect of antagonist on BzATP-evoked Ca2+ influx ([1]; CHO-K1, 300 μM oxATP, 100 μM BzATP): abolished the effect of BzATP
Effect of antagonist on BzATP-evoked Ca2+ influx ([2]; CHO-745, 300 μM oxATP, 100 μM BzATP): abolished the effect of BzATP

Inhibition of response induced through BzATP-gated P2X7 ([1]; CHO-K1, 2 mM xyloside pre-treatment (120 h), 3 μM BzATP): 82%
Inhibition of response induced through ATP-gated P2X7 ([1]; CHO-K1, 2 mM xyloside pre-treatment (120 h), 10 μM ATP): 55%
Effect on P2X7 agonist response ([2]; CHO-745, 2 mM xyloside pre-treatment): did not block the P2X7 agonist response
Molecule: O=[N+]([O-])c1ccccc1O[C@@H]1OC[C@@H](O)[C@H](O)[C@H]1O [xylosides, o-nitrophenyl-β-D-xylopyranoside]

Molecule: Nc1ncnc2c1ncn2C1OC(COP(=O)(O)CP(=O)(O)OP(=O)(O)O)C(O)C1O (stereo not drawn) [αβ-MeATP, α,β-methyleneadenosine 5′-triphosphate]
Intracellular Ca2+ increase on agonist addition [4]: did not increase intracellular Ca^2+

Molecule: Nc1ncnc2c1ncn2C1OC(COP(=O)(O)OP(=O)(O)CP(=O)(O)O)C(O)C1O (stereo not drawn) [βγ-MeATP, β,γ-methyleneadenosine 5′-triphosphate]
Intracellular Ca2+ increase on agonist addition [4]: did not increase intracellular Ca^2+

Increase of Ca2+cyt response by heparin pre-treatment ([1]; CHO-K1, 10 μM ATP): 120%
Potentiation of Ca2+ influx ([1]; CHO-K1, 100 μM heparin, 3 μM BzATP): 2.2 fold
Increase of Ca2+cyt response by heparin pre-treatment ([1]; CHO-K1, 1 mM ATP): 78%
Increase of Ca2+ response by heparin pre-treatment ([2]; CHO-745, 10 μM ATP): 40%
Increase of Ca2+ response by heparin pre-treatment ([2]; CHO-745, 1 mM ATP): 50%
Molecule: heparin
Effect of heparin on Ca2+ influx at saturating agonist ([4]; BzATP >100 μM or ATP >4 mM): induced no further increase in Ca^2+ influx
P2X7 stimulation by heparin alone ([4]; absence of ATP or BzATP, highest heparin concentration): did not elicit P2X7 stimulation; also recorded: did not elicit discernible P2X7 activation
